Source: patent publication US20120308608A1 (priority 2011, published 2012)
Entries after “also recorded” stand apart in the source; their conditions may differ.

Legend:
[1] = target: influenza virus replication machinery (PB1, PB2, PA, nucleocapsid protein of A/WSN/33) (Influenza A virus, UniProt P03427+P03430+P15659+P15682); test: Influenza virus mini-genome assay; assay type: cell-based, influenza virus strains A/WSN/33; conditions: A549 cells; increasing ASN2 concentrations
Influenza A/WSN/33 virus = assay type: cell-based
[2] = tested on: Influenza A/Vietnam/1203/2004 (H5N1) virus; assay type: cell-based; conditions: A549 cells; multiplicity of 0.01 pfu; 2 days
[3] = tested on: IFN beta promoter (MDCK-IFNb-Luc); assay type: cell-based, canine
[4] = tested on: Influenza A/PR/8/34 virus; assay type: cell-based
[5] = tested on: IFN production by MDCK cells; assay type: cell-based, canine

Structure (SMILES)	mini-genome luciferase activity [1]	A/WSN/33 virus replication (HA titer) (Influenza A/WSN/33 virus)	A/Vietnam/1203/2004 (H5N1) virus replication [2]	induction of IFNb-luc reporter expression [3]	A/PR/8/34 virus replication (HA titer) [4]	IFN production (IFN bioassay, VSV-GFP growth) [5]
N=C(N/N=C1/C(=O)N(Cc2ccccc2)c2ccccc21)SCC(=O)Nc1ccccc1 [ASN2]	decreased with increasing concentrations; also recorded: inhibited	able to attenuate both A/PR/8/34 and A/WSN/33 virus replication in a dose-dependent manner; also recorded: attenuated	antiviral activity; also recorded: attenuated	requires virus infection in order to induce IFN in the reporter assay; also recorded: depends on influenza A/PR/8/34 virus infection to induce IFN	able to attenuate both A/PR/8/34 and A/WSN/33 virus replication in a dose-dependent manner; also recorded: attenuated	able to induce biologically relevant levels of IFN once the Compound-treated cells are also infected with A/PR/8/34; also recorded: able to induce the production of IFN only if the treated cells are infected with influenza A/PR/8/34 virus
NS(=O)(=O)c1ccc2nc3c(nc2c1)-c1cccc2cccc-3c12 [ENA51]				induces IFN independent of virus		
